{
  "source": "patent US9969749B2",
  "about": "“Inhibitors of IRAK4 activity” (MERCK SHARP & DOHME CORP., priority 2014, dated 2018)",
  "note": "pIC50: −log10 of the molar value.",
  "data": [
    {"target": "IRAK4 (Homo sapiens (Human), UniProt Q9NWZ3)", "sequence (Q9NWZ3 whole entry)": "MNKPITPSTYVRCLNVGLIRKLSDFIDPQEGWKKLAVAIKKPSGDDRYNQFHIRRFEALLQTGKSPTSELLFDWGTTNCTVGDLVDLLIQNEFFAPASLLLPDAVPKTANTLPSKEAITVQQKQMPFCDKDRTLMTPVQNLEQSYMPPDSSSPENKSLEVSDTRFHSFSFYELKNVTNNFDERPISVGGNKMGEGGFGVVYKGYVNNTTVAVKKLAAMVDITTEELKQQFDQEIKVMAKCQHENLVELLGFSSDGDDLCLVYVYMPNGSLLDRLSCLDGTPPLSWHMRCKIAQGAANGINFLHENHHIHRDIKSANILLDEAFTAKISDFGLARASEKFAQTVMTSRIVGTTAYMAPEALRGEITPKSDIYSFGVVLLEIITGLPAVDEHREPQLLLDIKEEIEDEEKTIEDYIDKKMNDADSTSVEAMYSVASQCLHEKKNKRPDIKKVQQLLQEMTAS", "test": "IRAK4 Kinase Assay (IMAP fluorescence polarization)", "format": "biochemical", "details": "0.5 nM GST tagged IRAK4, 100 μM ATP, 100 nM fluorescent peptide substrate RP7030, 30 minutes at 25° C.", "procedure": "The kinase activity of IRAK4 is determined by its ability to catalyze the phosphorylation of a fluorescent polypeptide substrate. The extent of phosphorylation is measured using the IMAP technology (Molecular Devices) where the phosphorylated fluorescent substrate binds to the large M(III)-based nanoparticles which reduces the rotational speed of the substrate and thus increases its fluorescent polarization (FP).\n20 μL reaction mixture contains 10 mM TriHCl, pH 7.2, 0.5 nM GST tagged IRAK4 (SignalChem), 100 nM fluorescent peptide substrate (RP7030, Molecular Devices), 100 μM ATP, 1 mM DDT, 1 mM MgCl2, and 0.01% Tween 20. The reaction is initiated by the addition of ATP. After incubation for 30 minutes at 25° C., 60 μL of Progressive IMAP Reagent (Molecular Devices) is added to stop the reaction. Change in RP7030's FP is determined by a FP reader (Analyst HT, LJL BioSystems).", "values": [
      {"molecule": "Oc1cccc(-c2ccc3ncnc(N[C@H]4CC[C@H](N5CCOCC5)CC4)c3c2)c1", "note": "[Example 1-72, 3-{4-[(trans-4-morpholin-4-ylcyclohexyl)amino]quinazolin-6-yl}phenol]", "pIC50": 8.22},
      {"molecule": "Nc1cncc(-c2ccc3ncnc(N[C@H]4CC[C@H](N5CCOCC5)CC4)c3c2)c1", "note": "[Example 1-73, 6-(5-aminopyridin-3-yl)-N-(trans-4-morpholin-4-ylcyclohexyl)quinazolin-4-amine]", "pIC50": 9.00},
      {"molecule": "Nc1cc(-c2ccc3ncnc(N[C@H]4CC[C@H](N5CCOCC5)CC4)c3c2)ccn1", "note": "[Example 1-74, 6-(2-aminopyridin-4-yl)-N-(trans-4-morpholin-4-ylcyclohexyl)quinazolin-4-amine]", "pIC50": 8.52},
      {"molecule": "Cn1cc(-c2ccc3ncnc(N[C@H]4CC[C@H](N5CCOCC5)CC4)c3c2)cn1", "note": "[Example 1-75, 6-(1-methyl-1H-pyrazol-4-yl)-N-(trans-4-morpholin-4-ylcyclohexyl)quinazolin-4-amine]", "pIC50": 7.41},
      {"molecule": "Cc1c(-c2cncnc2)ccc2ncnc(N[C@H]3CC[C@H](N4CCOCC4)CC3)c12", "note": "[Example 1-76, 5-methyl-N-(trans-4-morpholin-4-ylcyclohexyl)-6-pyrimidin-5-ylquinazolin-4-amine]", "pIC50": 6.65},
      {"molecule": "Cc1c(-c2cnn(C)c2)ccc2ncnc(N[C@H]3CC[C@H](N4CCOCC4)CC3)c12", "note": "[Example 1-77, 5-methyl-6-(1-methyl-1H-pyrazol-4-yl)-N-(trans-4-morpholin-4-ylcyclohexyl)quinazolin-4-amine]", "pIC50": 5.88},
      {"molecule": "Cc1c(-c2ccncc2)ccc2ncnc(N[C@H]3CC[C@H](N4CCOCC4)CC3)c12", "note": "[Example 1-78, 5-methyl-N-(trans-4-morpholin-4-ylcyclohexyl)-6-pyridin-4-ylquinazolin-4-amine]", "pIC50": 6.36},
      {"molecule": "Cc1c(-c2cncc(O)c2)ccc2ncnc(N[C@H]3CC[C@H](N4CCOCC4)CC3)c12", "note": "[Example 1-79, 5-{5-methyl-4-[(trans-4-morpholin-4-ylcyclohexyl)amino]quinazolin-6-yl}pyridin-3-ol]", "pIC50": 7.42},
      {"molecule": "Fc1cc2ncnc(N[C@H]3CC[C@H](N4CCOCC4)CC3)c2cc1-c1cn[nH]c1", "note": "[Example 1-80, 7-fluoro-N-(trans-4-morpholin-4-ylcyclohexyl)-6-(1H-pyrazol-4-yl)quinazolin-4-amine]", "pIC50": 8.70},
      {"molecule": "CNc1cncc(-c2ccc3ncnc(N[C@H]4CC[C@H](N5CCOCC5)CC4)c3c2)c1", "note": "[Example 1-81, 6-[5-(methylamino)pyridin-3-yl]-N-(trans-4-morpholin-4-ylcyclohexyl)quinazolin-4-amine]", "pIC50": 8.70},
      {"molecule": "c1nc(N[C@H]2CC[C@H](N3CCOCC3)CC2)c2cc(-c3cn[nH]c3)ccc2n1", "note": "[Example 1-82, N-(trans-4-morpholin-4-ylcyclohexyl)-6-(1H-pyrazol-4-yl)quinazolin-4-amine]", "pIC50": 8.70},
      {"molecule": "Nc1cccc(-c2ccc3ncnc(N[C@H]4CC[C@H](N5CCOCC5)CC4)c3c2)c1", "note": "[Example 1-83, 6-(3-aminophenyl)-N-(trans-4-morpholin-4-ylcyclohexyl)quinazolin-4-amine]", "pIC50": 8.05},
      {"molecule": "Oc1cncc(-c2cc3c(N[C@H]4CC[C@H](N5CCOCC5)CC4)ncnc3cc2F)c1", "note": "[Example 1-84, 5-{7-fluoro-4-[(trans-4-morpholin-4-ylcyclohexyl)amino]quinazolin-6-yl}pyridin-3-ol]", "pIC50": 9.00},
      {"molecule": "Nc1cncc(-c2cc3c(N[C@H]4CC[C@H](N5CCOCC5)CC4)ncnc3cc2F)c1", "note": "[Example 1-85, 6-(5-aminopyridin-3-yl)-7-fluoro-N-(trans-4-morpholin-4-ylcyclohexyl)quinazolin-4-amine]", "pIC50": 8.00},
      {"molecule": "CNc1cncc(-c2cc3c(N[C@H]4CC[C@H](N5CCOCC5)CC4)ncnc3cc2F)c1", "note": "[Example 1-86, 7-fluoro-6-[5-(methylamino)pyridin-3-yl]-N-(trans-4-morpholin-4-ylcyclohexyl)quinazolin-4-amine]", "pIC50": 7.64},
      {"molecule": "Fc1cc2ncnc(N[C@H]3CC[C@H](N4CCOCC4)CC3)c2cc1-c1cncnc1", "note": "[Example 1-87, 7-fluoro-N-(trans-4-morpholin-4-ylcyclohexyl)-6-pyrimidin-5-ylquinazolin-4-amine]", "pIC50": 7.82},
      {"molecule": "c1cc(-c2ccc3ncnc(N[C@H]4CC[C@H](N5CCOCC5)CC4)c3c2)c2cc[nH]c2c1", "note": "[Example 1-88, 6-(1H-indol-4-yl)-N-[trans-4-(morpholin-4-yl)cyclohexyl]quinazolin-4-amine]", "pIC50": 7.00},
      {"molecule": "Cc1ncc(-c2ccc3ncnc(N[C@H]4CC[C@H](N5CCOCC5)CC4)c3c2)cn1", "note": "[Example 1-89, 6-(2-methylpyrimidin-5-yl)-N-[trans-4-(morpholin-4-yl)cyclohexyl]quinazolin-4-amine]", "pIC50": 7.74},
      {"molecule": "FC(F)(F)c1ncc(-c2ccc3ncnc(N[C@H]4CC[C@@H](N5CCOCC5)CC4)c3c2)cn1", "note": "[Example 1-90, N-[cis-4-(morpholin-4-yl)cyclohexyl]-6-[2-(trifluoromethyl)pyrimidin-5-yl]quinazolin-4-amine]", "pIC50": 6.77},
      {"molecule": "c1nc(N[C@H]2CC[C@H](N3CCOCC3)CC2)c2cc(-c3cc[nH]n3)ccc2n1", "note": "[Example 1-91, N-[trans-4-(morpholin-4-yl)cyclohexyl]-6-(1H-pyrazol-3-yl)quinazolin-4-amine]", "pIC50": 7.70},
      {"molecule": "CS(=O)(=O)Nc1cncc(-c2ccc3ncnc(N[C@H]4CC[C@H](N5CCOCC5)CC4)c3c2)c1", "note": "[Example 1-92, N-[5-(4-{[trans-4-(morpholin-4-yl)cyclohexyl]amino}quinazolin-6-yl)pyridin-3-yl]methanesulfonamide]", "pIC50": 7.62},
      {"molecule": "Cc1cncc(-c2ccc3ncnc(N[C@H]4CC[C@H](N5CCOCC5)CC4)c3c2)c1", "note": "[Example 1-93, 6-(5-methylpyridin-3-yl)-N-[trans-4-(morpholin-4-yl)cyclohexyl]quinazolin-4-amine]", "pIC50": 7.59},
      {"molecule": "OCc1cncc(-c2ccc3ncnc(N[C@H]4CC[C@H](N5CCOCC5)CC4)c3c2)c1", "note": "[Example 1-94, [5-(4-{[trans-4-(morpholin-4-yl)cyclohexyl]amino}quinazolin-6-yl)pyridin-3-yl]methanol]", "pIC50": 8.00},
      {"molecule": "CC(C)(O)c1cncc(-c2ccc3ncnc(N[C@H]4CC[C@H](N5CCOCC5)CC4)c3c2)c1", "note": "[Example 1-95, 2-[5-(4-{[trans-4-(morpholin-4-yl)cyclohexyl]amino}quinazolin-6-yl)pyridin-3-yl]propan-2-ol]", "pIC50": 6.48},
      {"molecule": "c1nc(N[C@H]2CC[C@H](N3CCOCC3)CC2)c2cc(-c3cnoc3)ccc2n1", "note": "[Example 1-96, 6-(isoxazol-4-yl)-N-[trans-4-(morpholin-4-yl)cyclohexyl]quinazolin-4-amine]", "pIC50": 8.05},
      {"molecule": "Fc1cncc(-c2ccc3ncnc(N[C@H]4CC[C@H](N5CCOCC5)CC4)c3c2)c1", "note": "[Example 1-97, 6-(5-fluoropyridin-3-yl)-N-[trans-4-(morpholin-4-yl)cyclohexyl]quinazolin-4-amine]", "pIC50": 7.66},
      {"molecule": "N#Cc1cncc(-c2ccc3ncnc(N[C@H]4CC[C@H](N5CCOCC5)CC4)c3c2)c1", "note": "[Example 1-98, 5-(4-{[trans-4-(morpholin-4-yl)cyclohexyl]amino}quinazolin-6-yl)pyridine-3-carbonitrile]", "pIC50": 7.68},
      {"molecule": "Clc1cncc(-c2ccc3ncnc(N[C@H]4CC[C@H](N5CCOCC5)CC4)c3c2)c1", "note": "[Example 1-99, 6-(5-chloropyridin-3-yl)-N-[trans-4-(morpholin-4-yl)cyclohexyl]quinazolin-4-amine]", "pIC50": 7.96},
      {"molecule": "Oc1cc(-c2ccc3ncnc(N[C@H]4CC[C@H](N5CCOCC5)CC4)c3c2)cnc1Cl", "note": "[Example 1-100, 2-chloro-5-(4-{[trans-4-(morpholin-4-yl)cyclohexyl]amino}quinazolin-6-yl)pyridin-3-ol]", "pIC50": 9.00},
      {"molecule": "CCOC(=O)c1cn(C)nc1-c1ccc2ncnc(N[C@H]3CC[C@H](N4CCOCC4)CC3)c2c1", "note": "[Example 2-1, Ethyl 1-methyl-3-(4-(((trans)-4-morpholinocyclohexyl)amino)quinazolin-6-yl)-1H-pyrazole-4-carboxylate]", "pIC50": 5.22},
      {"molecule": "Cc1nc(-c2ccc3ncnc(N[C@H]4CC[C@H](N5CCOCC5)CC4)c3c2)cs1", "note": "[Example 2-2, 6-(2-methyl-1,3-thiazol-4-yl)-N-(trans-4-morpholin-4-ylcyclohexyl)quinazolin-4-amine]", "pIC50": 7.04},
      {"molecule": "CC(C)c1nc(-c2ccc3ncnc(N[C@H]4CC[C@H](N5CCOCC5)CC4)c3c2)cs1", "note": "[Example 2-3, 6-[2-(1-methylethyl)-1,3-thiazol-4-yl]-N-(trans-4-morpholin-4-ylcyclohexyl)quinazolin-4-amine]", "pIC50": 6.41},
      {"molecule": "FC(F)(F)c1cncc(-c2ccc3ncnc(N[C@H]4CC[C@H](N5CCOCC5)CC4)c3c2)c1", "note": "[Example 2-4, N-(trans-4-morpholin-4-ylcyclohexyl)-6-[5-(trifluoromethyl)pyridin-3-yl]quinazolin-4-amine]", "pIC50": 6.92},
      {"molecule": "Oc1ncc(C(F)(F)F)cc1-c1ccc2ncnc(N[C@H]3CC[C@H](N4CCOCC4)CC3)c2c1", "note": "[Example 2-5, 3-{4-[(trans-4-morpholin-4-ylcyclohexyl)amino]quinazolin-6-yl}-5-(trifluoromethyl)pyridin-2-ol]", "pIC50": 6.03},
      {"molecule": "Nc1cc(-c2ccc3ncnc(N[C@H]4CC[C@H](N5CCOCC5)CC4)c3c2)cnc1F", "note": "[Example 2-7, 6-(5-amino-6-fluoropyridin-3-yl)-N-(trans-4-morpholin-4-ylcyclohexyl)quinazolin-4-amine]", "pIC50": 9.00},
      {"molecule": "O=C(O)c1cccc(-c2ccc3ncnc(N[C@H]4CC[C@H](N5CCOCC5)CC4)c3c2)n1", "note": "[Example 2-8, 6-{4-[(trans-4-morpholin-4-ylcyclohexyl)amino]quinazolin-6-yl}pyridine-2-carboxylic acid]", "pIC50": 6.91}
    ]}
  ]
}
